Values belong to the compound of their own block, whether it stands above or below them.
Tests used:
KDM5D = KDM5D (Homo sapiens, UniProt Q9BY66); test: Surface Plasmon Resonance (SPR), immobilized KDM5D; type: binding; conditions: KDM5D immobilized on COOH5 sensorchip, buffer HSP-1%D, analyte 6.25-100 μM
Experimental: Surface Plasmon Resonance (SPR) experiments were carried out using a SensiQ Pioneer system (ICx Nomadics, Stillwater, OK, USA). Immobilization of ligand (KDM5D) was carried out essentially as in Ilari et al.. The sensor chip (COOH5) was activated chemically by a 100 µL injection of a 1:1 mixture of N-ethyl-N′-(3-([…])carbodiimide (200 mM) and N-hydroxysuccinimide (50 mM) at a flow rate of 5 µL/min. KDM5D was immobilized on activated sensor chips via amine coupling. The immobilization was carried out in 20 mM sodium acetate at pH 4.5; the remaining unreacted groups were blocked by injecting 1 M ethanolamine hydrochloride (100 µL). The amount of immobilized KDM5D was detected by mass concentration-dependent changes in the refractive index on the sensor chip surface and corresponded to about 11,000 resonance units (RU); an empty flow cell was used as a reference. Analytes, i.e., inhibitors RS3152, RS3183, RS3195, RS4995 and RS5033 were dissolved in DMSO at a concentration of 10 mM and diluted in HSP buffer (10 mM Hepes pH 7.4, 150 mM NaCl + 0.005% surfactant P20) to yield 100 μM inhibitor concentration in HSP + 1% DMSO (HSP-1%D). The analytes were automatically diluted in HSP-1%D and injected on the sensorchip for 120 s at a constant flow (30 µL/min); analyte concentrations were: (1) 6.25 μM; (2) 12.5 μM; (3) 25 μM; (4) 50 μM; (5) 100 μM. The increase in RU relative to baseline indicates complex formation; the plateau region represents the steady-state phase of the interaction, whereas the decrease in RU after 120 s represents dissociation of analytes from immobilized KDM5 after injection of buffer HSP-1%D. The sensorgrams were analysed using the SensiQ Qdat 4.0 program and using simple Scatchard plots.

KDM5A-D = conditions: in vitro, toward KDM5 enzymes; ref Tumber et al. [49]; cited from earlier work
[1] = tested on: MM1S multiple myeloma cells; design: method as in PMID 28262558; conditions: cited from earlier work
[2] = tested on: γ-H2AX levels in MCF-7 cells; test: Western blotting of H2AX phosphorylation after irradiation; type: cell-based, human; conditions: RS5033 10 μM, KDOAM-25 0.03 μM
Experimental: (§1) Proteins were resolved on a 12% (histones) or 5% (JARID1B) denaturing polyacrylamide gel, using either 4 μg of histone preparation or 40 μg of cell lysate. After electrophoresis, proteins were transferred on a nitrocellulose membrane (Protran™ […] NC, # 10600002, GE Healthcare (Amersham™), Chicago, IL, USA) via wet transfer method using a Bio-Rad tank. Transfer efficiency was verified via ponceau staining (#P7767, Sigma-Aldrich). Filters were blocked with either milk (#70166, Sigma-Aldrich) or bovine serum albumin (#A3069, Sigma-Aldrich) and then hybridized over night at 4 °C in gentle rotation with the following antibodies: rabbit anti-H3K4me3 (1:1000, #39915, Active Motif, RRID:AB_2687512); rabbit-anti-H3K27me3 (1:1000, #9733, Cell Signaling Technology, RRID:AB_2616029); rabbit-anti- H3K9pan-methylated (1:1000, #4473, RRID:AB_10544693); rabbit-anti-H3 ([…], Cat#1791, ABCAM, RRID:AB_302613); rabbit anti-H2AX (1:1000, Cat#7631, Cell Signaling Technology, RRID:AB_10860771), rabbit anti-Phospho-H2AX (1:1000, Cat#9718, Cell Signaling Technology, RRID:AB_2118009), rabbit anti-JARID1B (1:50, Cell Signaling Technology, Cat#3273 RRID: AB_1264191). Goat-anti-Rabbit Horseradish Peroxidase conjugated (1:10,000, #31460, Thermo Fisher Scientific, Waltham, MA, USA RRID:AB_228341) was used as secondary antibody for 1 hour hybridization at room temperature. Blots were scanned and analyzed with a ChemiDoc XRS+ Imaging System (Bio-Rad). The volumes of each band of protein was acquired using Bio-Rad’s ImageLab software by means of volume tools using global quantification. The signal for each protein was normalized to the housekeeping protein and ratios with average control values were determined. For histones as loading control was used either total histone H3 detected by a specific antibody or histone H1 levels by staining the upper part of the gel properly cut before protein transfer on nitrocellulose membrane.

MCF-7 cells [3] = test: Clonogenic assay after X-ray irradiation; type: cell-based, human; conditions: MCF-7, 0.03 μM, 3 and 10 Gy, compared to DMSO control
Experimental: One hour after treatment with inhibitors, cells were exposed to X-ray using a MLG 300/6-D apparatus (Gilardoni, Lecco, Italy) set to […] and 6 mA, in order to produce an equivalent absorbed dose of 1cGy/s. Afterwards, cells were harvested, counted and then diluted in inhibitor containing growth medium. Appropriate cell numbers were seeded in quadruplicate according to the doubling time of the cell line and to radiation dose. 24 h after this seeding, the medium with inhibitor was replaced with fresh DMEM and cells were then incubated for 14 days (enough time to allow at least six cell divisions). After this period of growth, cells were washed twice with PBS and then fixed and stained with a suitable volume of a solution made of 0.3% Methylene Blue and 80% Ethanol for 30 min at room temperature. After washing cells twice with ddH2O, plates were pictured with ChemiDoc XRS+ Imaging System (Bio-Rad) in colorimetric mode. Colonies were detected using Fiji software, with the “Find maxima” function setting a background noise threshold of 3000. Radiation-dose response curveS to X-ray for DMSO and inhibitor samples were calculated using surviving fraction. Plating efficiency and surviving fraction were calculated as follows:Plating efficiency = number of colonies counted/number of cells plated Surviving fraction = Plating efficiency/plating efficiency of shame sample

[4] = tested on: H3K4me3 levels in MCF-7 cells; test: Western blotting of H3K4me3 levels in bulk chromatin; type: cell-based, human; conditions: MCF7 bulk chromatin, 24 h
Experimental: Histone isolation was performed according to acid extraction of histones protocol of Shechter and colleagues. Histone concentration was determined by running 5 μL of samples and known concentrations of commercially available purified calf thymus histones (from Sigma Aldrich Cat. #000000010223565001) on a SDS-PAGE gel. The gel is stained with Coomassie blue G 250 (BIO-RAD Cat. #161-0786) for 1 hour at room temperature and then destained in distilled water. The gel image is acquired with ChemiDoc XRS+ Imaging System (Bio-Rad, Hercules, CA, USA) and the volumes of bands of the samples are compared to standard concentrations of calf thymus histone.
as §1

MCF-7 cells [5] = test: Flow-cytometry analysis of cell cycle distribution; type: cell-based, human; conditions: MCF-7, same range of concentrations as H3K4me3 test (not shown)
Experimental: Flow-cytometry analysis of DNA content was carried out using an EPICS xl flow-cytometer (Beckman-Coulter, Brea, CA, USA). DMSO and inhibitor treated MCF-7 cells were trypsinized, pelleted, washed with PBS and finally resuspended in PBS containing 0.1% Triton-X-100 (#A1388.1000, AppliChem, Darmstadt, Germany) and 40 μg/mL propidium iodide (#P-4170, Sigma). After 20 min incubation at 37 °C the samples were analyzed. 10,000 events were acquired for each sample. Acquired data were analyzed using the WinMDI software by Joe Trotter, available at http://facs.scripps.edu.

[6] = tested on: panel of 55 receptors and enzymes; design: method as in PMID 28262558; conditions: cited from earlier work
MCF-7 cells [7] = test: CCK-8 viability assay after X-ray irradiation; type: cell-based, human; conditions: MCF-7 irradiated with 3 Gy, all concentrations tested, compared to DMSO control, CCK-8 48 h post irradiation
Experimental: The cytoxicity assay was performed with Cell Counting Kit-8 (#96992, Sigma-Aldrich) according to the manufacturer’s instructions. 100 µL of MCF-7 T47D or MDA-MB231 cell suspension (5000 cells/well) was dispensed in a 96-well plate. After 24 h, inhibitor or DMSO was added in growth medium and then cells were irradiated. 48 h post irradiation, 10 μL of CCK-8 solution was added to each well of the plate and incubated again for 1 h. Incubate the plate for 1–4 h in the incubator. The absorbance at 450 nm was read using a VICTOR2 1420 reader (Perkin Elmer Wallac, Waltham, MA, USA). The absorbance at 450 nm of each sample, which is proportional to the number of viable cells, was first normalized on the same value of absorbance of blank (a well with only growth medium). The absorbance of each dose of radiation (sham, 0.3, 1 and 3 Gy) was normalized to the corresponding DMSO control and then, for each concentration of inhibitors, these values were normalized to the corresponding sham control.

Sequence of KDM5D (Q9BY66 whole entry): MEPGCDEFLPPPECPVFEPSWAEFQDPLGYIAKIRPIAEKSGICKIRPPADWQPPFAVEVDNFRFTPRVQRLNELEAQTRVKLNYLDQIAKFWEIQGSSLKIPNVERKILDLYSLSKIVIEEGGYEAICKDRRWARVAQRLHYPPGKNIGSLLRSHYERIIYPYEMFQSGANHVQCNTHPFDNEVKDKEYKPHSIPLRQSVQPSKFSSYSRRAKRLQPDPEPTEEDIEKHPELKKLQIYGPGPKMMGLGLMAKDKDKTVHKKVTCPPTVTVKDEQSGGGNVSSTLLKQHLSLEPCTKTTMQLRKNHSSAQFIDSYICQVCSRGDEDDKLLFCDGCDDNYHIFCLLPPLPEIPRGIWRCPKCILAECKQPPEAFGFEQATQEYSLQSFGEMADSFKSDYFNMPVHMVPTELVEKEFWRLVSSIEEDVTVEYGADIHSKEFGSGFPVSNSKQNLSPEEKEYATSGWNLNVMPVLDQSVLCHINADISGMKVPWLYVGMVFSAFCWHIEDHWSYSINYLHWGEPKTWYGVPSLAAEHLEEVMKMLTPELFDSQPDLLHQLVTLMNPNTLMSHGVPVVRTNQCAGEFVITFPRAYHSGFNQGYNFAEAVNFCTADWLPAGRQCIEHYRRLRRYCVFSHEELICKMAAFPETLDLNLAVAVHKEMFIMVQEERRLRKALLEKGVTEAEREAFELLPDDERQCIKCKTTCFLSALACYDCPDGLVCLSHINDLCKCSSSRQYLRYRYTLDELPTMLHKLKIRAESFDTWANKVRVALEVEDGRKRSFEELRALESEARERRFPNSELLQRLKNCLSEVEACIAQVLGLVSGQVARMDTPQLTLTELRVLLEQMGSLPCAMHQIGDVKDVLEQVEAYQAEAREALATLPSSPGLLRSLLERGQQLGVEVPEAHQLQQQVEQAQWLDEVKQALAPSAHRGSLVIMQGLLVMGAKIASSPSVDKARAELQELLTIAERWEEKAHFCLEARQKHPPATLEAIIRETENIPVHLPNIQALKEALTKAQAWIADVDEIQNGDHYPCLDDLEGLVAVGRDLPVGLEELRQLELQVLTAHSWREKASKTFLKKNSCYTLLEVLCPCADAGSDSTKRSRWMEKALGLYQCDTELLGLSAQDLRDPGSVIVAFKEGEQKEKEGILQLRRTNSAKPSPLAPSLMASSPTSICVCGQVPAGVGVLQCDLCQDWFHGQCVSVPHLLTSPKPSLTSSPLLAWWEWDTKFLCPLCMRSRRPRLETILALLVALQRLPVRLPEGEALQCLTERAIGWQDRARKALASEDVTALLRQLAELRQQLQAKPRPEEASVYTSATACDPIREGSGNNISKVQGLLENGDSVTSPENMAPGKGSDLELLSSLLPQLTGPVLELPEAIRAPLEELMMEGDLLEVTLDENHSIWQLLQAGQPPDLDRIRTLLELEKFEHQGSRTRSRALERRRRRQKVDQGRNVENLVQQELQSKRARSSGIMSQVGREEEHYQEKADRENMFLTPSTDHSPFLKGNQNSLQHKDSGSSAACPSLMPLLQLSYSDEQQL

Kd (KDM5D): 62 ± 5 µM
SMILES: COc1ccc(S(=O)(=O)Nc2cccc(C(=O)n3cccc3)c2)cc1 [RS3152]

SMILES: CCN(CCN(C)C)C(=O)CNCc1cc(C(N)=O)ccn1 [KDOAM-25, reference compound]
IC50 (KDM5A-D): < 0.1 µM | proliferation of MM1S multiple myeloma cells [1]: block proliferation | ɤH2AX increase normalized to the amount of H2AX ([2]; MCF-7, 6 Gy, 4-36 h): not significant | amount of ɤH2AX ([2]; MCF-7, sham-irradiated and irradiated (6 Gy) cells): increases | proliferative capacity (clonogenic survival) (MCF-7 cells [3]): slight but significant decrease | increase of H3K4 tri-methylation ([4]; 0.03–1 μM): around 1.5 fold | increase of H3K4 tri-methylation at higher concentrations ([4]; concentrations above 1 μM): the effect is lost | effect on cell cycle (MCF-7 cells [5]): does not show any significant effect | off-target activity [6]: no off-target activity | reduction of viable cells (MCF-7 cells [7]): 20–35%

Kd (KDM5D): 38 ± 3 µM
SMILES: CCOC(=O)c1ccccc1C(=O)c1ccc(NS(=O)(=O)c2ccc(Br)cc2)cc1 [RS4995]

Kd (KDM5D): 150 ± 15 µM
SMILES: COc1ccc(S(=O)(=O)Nc2cccc(C(=O)O)c2)cc1 [RS3183]
